In publication PMC10033663, “Acute pharmacological profile of 2C-B-Fly-NBOMe in male Wistar rats—pharmacokinetics, effects on behaviour and thermoregulation” (Frontiers in Pharmacology, 2023):
Entries after “also recorded” stand apart in the source; their conditions may differ. Where two headings read alike, the source gives them in different places.

Tests used:
[1] = test system: 5-HT2A receptor; parameters: method as in Ettrup et al., 2011; details: GF-62 cells; among the examined NBOMes; ref Ettrup et al., 2011; cited from earlier work
[2] = ref Richter et al. (2020); cited from earlier work
[3] = test system: male Wistar rats; assay: Open field test (OFT); format: in vivo
Protocol: OFT was performed in a black square plastic arena (80 × 80 × 40 cm) in an evenly lit and sound-proof testing room. Rats were individually placed into the centre and allowed to explore the arena for 30 min while their behaviour was recorded. The experimental arena was cleaned with 70% ethanol after each subject. Arena was virtually divided into a 5 × 5 grid of identical squares; 16 squares were located next to the walls (peripheral zone) and 9 squares were in the centre (central zone). Software EthoVision XT 14.0 software (Noldus, Netherlands) was used to capture raw data used in the calculation of the following dependent variables: trajectory length (cm; corrected for deviations of <3 cm) and its temporal dynamics in 5 min intervals; thigmotaxis (∑fperipheral zones/∑fall zones, f = frequency of appearance in the zone) reflecting the probability of appearance in the peripheral zone; Tcenter reflecting time spent in the centre of the arena (∑timecentral zones).
(§1) Locomotor activity in OFT (mean trajectory length across 5 min blocks) was evaluated using a 2 × 4 × 6 mixed factorial ANOVA with temporal testing onset (15 or 60 min) and drug treatment (2C-B-Fly-NBOMe 0.2, 1, or 5 mg/kg or ctrl) as between-subjects factors, and time blocks (6 × 5 min intervals) as a within-subjects factor. Spatial distribution of animal movement in OFT (thigmotaxis and T center) and PPI parameters (habituation, ASR and % of PPI) were each analysed using a 2 × 4 factorial ANOVA with temporal testing onset (15 or 60 min) and drug treatment (2C-B-Fly-NBOMe 0.2, 1, or 5 mg/kg or ctrl) as between-subjects factors.

[4] = PET; ref Ettrup et al., 2011; cited from earlier work
[5] = three different systems; ref Nykodemová et al., 2021; cited from earlier work
[6] = test system: male Wistar rats; assay: Prepulse inhibition (PPI) of acoustic startle response (ASR); format: in vivo
Protocol: The effect of 2C-B-Fly-NBOMe on sensorimotor gating was evaluated by a PPI of ASR test. Two identical startle chambers (SR-LAB, San Diego Instruments, California) were used, each containing a sound-proof, evenly lit and ventilated enclosure with a plexiglass stabilimeter (8.7 cm inner diameter), a piezoelectric accelerometer for detecting amplitudes of the ASR, and a high-frequency loudspeaker producing acoustic stimuli. Amplitudes of the ASR were digitized for subsequent analysis. The experimental design was based on our previous studies ([Štefková et al., 2017]; [Šíchová et al., 2018]). Two days before the experiment, the animals were habituated to the startle chambers with a background white noise (75 dB) for 5 min, followed by six presentations of pulse-alone stimuli (125 dB, 40 ms) with pseudorandomized inter-stimulus intervals. […]
Habituation was calculated by the percentage reduction in the ASR from the initial six baseline trials to the final six trials. PPI was calculated as [100 - (mean response for the prepulse - pulse trial/startle response for the single pulse trials) × 100]. […]
as §1

[7] = 0.2, 1 and 5 mg/kg s. c., 15 and 60 min onset

In the case of `COc1ccccc1CNCCc1c2c(c(Br)c3c1OCC3)OCC2` [2C-B-Fly-NBOMe], the “binding affinity to 5-HT2A receptor” value [1] is given as “highest binding affinity”, the “number of phase I metabolites” value [2] is given as “five” and the “number of phase II metabolites” value [2] is given as “one”. The “Tcentre (time spent in the centre of the arena)” value [3, 7] was “not affected”, the thigmotaxis [3, 7] was “not affected” and the “total trajectory length (locomotor activity) versus ctrl” value ([3]; 0.2, 1 and 5 mg/kg s. c., 15 and 60 min testing onset) was “dose-dependently reduced; also recorded: significant differences in all remaining groups versus ctrl except for 0.2 mg/kg of 2C-B-Fly-NBOMe in the 60 min onset”. The Locomotor habituation ([3]; 0.2, 1 and 5 mg/kg s. c., both testing onsets) was “dose-dependently disturbed”, the “locomotion in 5 min time blocks versus ctrl” value ([3]; 15 min onset, 1 mg/kg s. c., p < 0.05) was “persisted until the fourth block” and the “locomotion in 5 min time blocks versus ctrl” value ([3]; 15 min onset, 5 mg/kg s. c., p < 0.05–0.001) was “significant hypolocomotion during the whole session”. The “locomotion in 5 min time blocks versus ctrl” value ([3]; 15 min onset, all the doses (0.2, 1, 5 mg/kg s. c.), p < 0.001) was “significantly decreased activity in the first three blocks”, the “locomotion in 5 min time blocks versus ctrl” value ([3]; 60 min onset, 1 mg/kg and 5 mg/kg groups, p < 0.01–0.001) was “persisted to the fifth block” and the “locomotion in 5 min time blocks versus ctrl” value ([3]; 60 min onset, all groups (0.2, 1, 5 mg/kg s. c.), p < 0.05–0.001) was “reduced activity in the first two blocks”. The cortical uptake [4] was “highest cortical uptake among the examined NBOMes”, the “penetration of brain tissue” value [4] was “readily penetrated the brain tissue” and the “number of phase I metabolites” value [5] was “thirty-five”. The “number of phase II metabolites” value [5] was “nine”, the “percentage of PPI” value ([6]; 0.2, 1 and 5 mg/kg s. c., ANOVA treatment factor) was “not by treatment” and the “Habituation of ASR” value ([6]; 0.2, 1 and 5 mg/kg s. c., p < 0.05) was “significantly affected by drug treatment”. The ASR versus ctrl ([6]; all doses (0.2, 1, 5 mg/kg s. c.), 15 and 60 min onset, p < 0.001) was “strongly disrupted; also recorded: significantly diminished ASR; also recorded: strongly attenuates ASR”.
